In experiment [1] the target is T1, recombinant human FLAP protein (Homo sapiens, UniProt P20292).
T1 construct: made in house; host or cells: Sf9 insect cells (100,000×g membrane pellet used)
T1 sequence (P20292 1-161): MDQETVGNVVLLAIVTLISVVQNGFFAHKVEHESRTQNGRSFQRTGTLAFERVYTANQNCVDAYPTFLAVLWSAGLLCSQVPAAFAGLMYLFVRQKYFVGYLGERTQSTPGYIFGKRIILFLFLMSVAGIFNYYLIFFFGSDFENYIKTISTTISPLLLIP
Description: FLAP binding assay (SPA, displacement of [125I]L-691,831). As to conditions: for pIC50: membranes of sf9 cells expressing recombinant human FLAP, [125I]L-691,831 probe, read-out: FLAP binding IC50. A digest of the protocol:
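Membranes from sf9 cells expressing human FLAP in pH 7.5 Tris buffer (MgCl2, EDTA, PMSF). Non-specific binding defined with 10 μM cold L-691,831.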
For orientation: Displacement assays read how much labelled ligand stays bound in the presence of the test substance.

For experiment [2], the system named is synthesis of LTB4 in human whole blood. The experiment in a line: Human whole blood assay (inhibition of LTB4 synthesis, calcimycin stimulated). The experiment is classed as cell-based. As to conditions: heparinized human whole blood, calcimycin 20 μM, plasma LTB4. A digest of the protocol: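 LTB4 in plasma was quantified by HTRF immunoassay. Before that, compound-treated heparinized whole blood (15 min, 37 °C) received 20 μM final calcimycin for a further 30 min at 37 °C, followed by centrifugation at 1500×g.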

pIC50: −log10 of the molar value.

For orientation: pIC50 means the negative decadic logarithm of the IC50, by convention in mol/L. As to `Cn1cc(-c2nc([C@](C)(c3ccc(-c4cnc(N)nc4)cc3)C3CC3)no2)cn1` [Example 62, 5-(4-{(1S)-1-cyclopropyl-1-[5-(1-methyl-1H-pyrazol-4-yl)-1,2,4-oxadiazol-3-yl]ethyl}phenyl)pyrimidin-2-amine], the negative-log IC50 (pIC50) was 7.74 in experiment [1] and 6.46 in experiment [2].
For `COCCn1cc(-c2nc([C@@](C)(c3ccc(-c4cnc(N)nc4)cc3)C(C)C)no2)cn1` [Example 63, 5-{4-[(2R)-2-{5-[1-(2-methoxyethyl)-1H-pyrazol-4-yl]-1,2,4-oxadiazol-3-yl}-3-methylbutan-2-yl]phenyl}pyrimidin-2-amine], the pIC50 is 8.96 in experiment [1] and 7.85 in experiment [2].
The matching figures for `COCCn1cc(-c2nc([C@](C)(c3ccc(-c4cnc(N)nc4)cc3)C(C)C)no2)cn1` [Example 64, 5-{4-[(2S)-2-{5-[1-(2-methoxyethyl)-1H-pyrazol-4-yl]-1,2,4-oxadiazol-3-yl}-3-methylbutan-2-yl]phenyl}pyrimidin-2-amine]: 7.80 and 6.39.
With `Cn1cc(-c2nc([C@@H](c3ccc(-c4cnc(N)nc4)cc3)C(C)(C)C)no2)cn1` [Example 65, 5-(4-{(1R)-2,2-dimethyl-1-[5-(1-methyl-1H-pyrazol-4-yl)-1,2,4-oxadiazol-3-yl]propyl}phenyl)pyrimidin-2-amine], the negative logarithm of the IC50 (pIC50) in experiment [1] was 7.12; in experiment [2], 5.82.
Consider `Cn1cc(-c2nc([C@H](c3ccc(-c4cnc(N)nc4)cc3)C(C)(C)C)no2)cn1` [Example 66, 5-(4-{(1S)-2,2-dimethyl-1-[5-(1-methyl-1H-pyrazol-4-yl)-1,2,4-oxadiazol-3-yl]propyl}phenyl)pyrimidin-2-amine], for which the pIC50 in experiment [1] is 7.96; in experiment [2], 6.48.
For the molecule `CC(C)C(c1ccc(-c2cnc(N)nc2)cc1)c1noc(-c2cnn(C)c2)n1` (stereo not drawn) [Example 67, 5-(4-{2-methyl-1-[5-(1-methyl-1H-pyrazol-4-yl)-1,2,4-oxadiazol-3-yl]propyl}phenyl)pyrimidin-2-amine], the pIC50 is 8.21 in experiment [1] and 6.72 in experiment [2].
The matching figures for `Cn1cc(-c2nc(C(C)(C)c3ccc(-c4cnc(N)nc4)cc3)no2)cn1` [Example 68, 5-(4-{2-[5-(1-methyl-1H-pyrazol-4-yl)-1,2,4-oxadiazol-3-yl]propan-2-yl}phenyl)pyrimidin-2-amine]: 8.17 and 7.03.
The matching figures for `CC(C)(c1ccc(-c2cnc(N)nc2)cc1)c1noc(-c2cn[nH]c2)n1` [Example 69, 5-(4-{2-[5-(1H-pyrazol-4-yl)-1,2,4-oxadiazol-3-yl]propan-2-yl}phenyl)pyrimidin-2-amine]: 8.11 and 6.92.
Regarding `CC(C)(O)CNc1ccc(-c2nc(C(C)(C)c3ccc(-c4cnc(N)nc4)cc3)no2)cn1` [Example 70, 1-{[5-(3-{2-[4-(2-aminopyrimidin-5-yl)phenyl]propan-2-yl}-1,2,4-oxadiazol-5-yl)pyridin-2-yl]amino}-2-methylpropan-2-ol], the values for the pIC50 in experiment [1] and in experiment [2] were 8.15 and 6.23, respectively.
In the same order, the values of `CC(C)(c1ccc(-c2cnc(N)nc2)cc1)c1noc(-c2ccc(NCCS(C)(=O)=O)nc2)n1` [Example 71, 5-(4-{2-[5-(6-{[2-(methylsulfonyl)ethyl]amino}pyridin-3-yl)-1,2,4-oxadiazol-3-yl]propan-2-yl}phenyl)pyrimidin-2-amine] are 7.77 and 6.05.
For the molecule `CC(C)(CO)Nc1ccc(-c2nc(C(C)(C)c3ccc(-c4cnc(N)nc4)cc3)no2)cn1` [Example 72, 2-{[5-(3-{2-[4-(2-aminopyrimidin-5-yl)phenyl]propan-2-yl}-1,2,4-oxadiazol-5-yl)pyridin-2-yl]amino}-2-methylpropan-1-ol], the negative-log IC50 (pIC50) is 7.92 in experiment [1] and 6.36 in experiment [2].
The matching figures for `CC(C)(O)CNc1cnc(-c2nc(C(C)(C)c3ccc(-c4cnc(N)nc4)cc3)no2)cn1` [Example 73, 1-{[5-(3-{2-[4-(2-aminopyrimidin-5-yl)phenyl]propan-2-yl}-1,2,4-oxadiazol-5-yl)pyrazin-2-yl]amino}-2-methylpropan-2-ol]: 7.55 and 6.00.
The matching figures for `CC(C)(CO)Nc1cnc(-c2nc(C(C)(C)c3ccc(-c4cnc(N)nc4)cc3)no2)cn1` [Example 74, 2-{[5-(3-{2-[4-(2-aminopyrimidin-5-yl)phenyl]propan-2-yl}-1,2,4-oxadiazol-5-yl)pyrazin-2-yl]amino}-2-methylpropan-1-ol]: 7.77 and 6.19.
For the molecule `CC(C)(O)Cn1cc(-c2nc(C(C)(C)c3ccc(-c4cnc(N)nc4)cc3)no2)cn1` [Example 75, 1-[4-(3-{2-[4-(2-aminopyrimidin-5-yl)phenyl]propan-2-yl}-1,2,4-oxadiazol-5-yl)-1H-pyrazol-1-yl]-2-methylpropan-2-ol], the negative logarithm of the IC50 (pIC50) in experiment [1] was 7.64; in experiment [2], 6.59.
Turning to `COCCn1cc(-c2nc(C(C)(C)c3ccc(-c4cnc(N)nc4)cc3)no2)cn1` [Example 76, 5-[4-(2-{5-[1-(2-methoxyethyl)-1H-pyrazol-4-yl]-1,2,4-oxadiazol-3-yl}propan-2-yl)phenyl]pyrimidin-2-amine], the negative logarithm of the IC50 (pIC50) in experiment [1] is 7.46; in experiment [2], 6.57.
`CC(C)[C@](C)(c1ccc(-c2cnc(N)nc2)cc1)c1noc(-c2cn[nH]c2)n1` [Example 77, 5-(4-{(2R)-3-methyl-2-[5-(1H-pyrazol-4-yl)-1,2,4-oxadiazol-3-yl]butan-2-yl}phenyl)pyrimidin-2-amine]: the pIC50 is 8.77 in experiment [1] and 7.44 in experiment [2].
The matching figures for `CC(C)[C@@](C)(c1ccc(-c2cnc(N)nc2)cc1)c1noc(-c2cn[nH]c2)n1` [Example 78, 5-(4-{(2S)-3-methyl-2-[5-(1H-pyrazol-4-yl)-1,2,4-oxadiazol-3-yl]butan-2-yl}phenyl)pyrimidin-2-amine]: 8.89 and 6.62.
As to `CNC(=O)Cn1cc(-c2nc(C(C)(C)c3ccc(-c4cnc(N)nc4)cc3)no2)cn1` [Example 79, 2-[4-(3-{2-[4-(2-aminopyrimidin-5-yl)phenyl]propan-2-yl}-1,2,4-oxadiazol-5-yl)-1H-pyrazol-1-yl]-N-methylacetamide], the figures for the negative logarithm of the IC50 (pIC50) in experiment [1] and in experiment [2] were 6.82 and 5.66, respectively.
As for `CC(C)C(C)(c1ccc(-c2cnc(N)nc2)cc1)c1noc(NCCO)n1` (stereo not drawn) [Example 80, 2-[(3-{2-[4-(2-aminopyrimidin-5-yl)phenyl]-3-methylbutan-2-yl}-1,2,4-oxadiazol-5-yl)amino]ethanol], the pIC50 in experiment [1] is 7.64; in experiment [2], 6.46.
The matching figures for `COCCNc1nc(C(C)(c2ccc(-c3cnc(N)nc3)cc2)C(C)C)no1` (stereo not drawn) [Example 81, 5-[4-(2-{5-[(2-methoxyethyl)amino]-1,2,4-oxadiazol-3-yl}-3-methylbutan-2-yl)phenyl]pyrimidin-2-amine]: 7.96 and 6.74.
The matching figures for `CC(C)C(C)(c1ccc(-c2cnc(N)nc2)cc1)c1noc(NCC(C)(C)O)n1` (stereo not drawn) [Example 82, 1-[(3-{2-[4-(2-aminopyrimidin-5-yl)phenyl]-3-methylbutan-2-yl}-1,2,4-oxadiazol-5-yl)amino]-2-methylpropan-2-ol]: 7.89 and 6.66.
In the same order, the values of `CC(C)C(C)(c1ccc(-c2cnc(N)nc2)cc1)c1noc(N2CCNCC2)n1` (stereo not drawn) [Example 83, 5-(4-{3-methyl-2-[5-(piperazin-1-yl)-1,2,4-oxadiazol-3-yl]butan-2-yl}phenyl)pyrimidin-2-amine] are 7.59 and 5.96.
With `CC(C)C(C)(c1ccc(-c2cnc(N)nc2)cc1)c1noc(C(=O)N2CCNCC2)n1` (stereo not drawn) [Example 84, (3-{2-[4-(2-aminopyrimidin-5-yl)phenyl]-3-methylbutan-2-yl}-1,2,4-oxadiazol-5-yl)(piperazin-1-yl)methanone], the pIC50 in experiment [1] is 6.92; in experiment [2] it was 5.77.
The matching figures for `CC(C)C(C)(c1ccc(-c2cnc(N)nc2)cc1)c1noc(CCC(C)(C)C(=O)O)n1` (stereo not drawn) [Example 85, 4-(3-{2-[4-(2-aminopyrimidin-5-yl)phenyl]-3-methylbutan-2-yl}-1,2,4-oxadiazol-5-yl)-2,2-dimethylbutanoic acid]: 7.32 and under 5.30.
As to `CC(=O)N1CCC(NC(=O)c2nc(C(C)(c3ccc(-c4cnc(N)nc4)cc3)C(C)C)no2)CC1` (stereo not drawn) [Example 86, N-(1-acetylpiperidin-4-yl)-3-{2-[4-(2-aminopyrimidin-5-yl)phenyl]-3-methylbutan-2-yl}-1,2,4-oxadiazole-5-carboxamide], the negative-log IC50 (pIC50) in experiment [1] was 6.72; in experiment [2], under 5.30.
The matching figures for `CC(C)C(C)(c1ccc(-c2cnc(N)nc2)cc1)c1noc(NCCS(C)(=O)=O)n1` (stereo not drawn) [Example 87, 5-{4-[3-methyl-2-(5-{[2-(methylsulfonyl)ethyl]amino}-1,2,4-oxadiazol-3-yl)butan-2-yl]phenyl}pyrimidin-2-amine]: 7.39 and 6.01.
With `CC(C)C(C)(c1ccc(-c2cnc(N)nc2)cc1)c1noc(O)n1` (stereo not drawn) [Example 88, 3-{1-[4-(2-Amino-pyrimidin-5-yl)-phenyl]-1,2-dimethyl-propyl}-[1,2,4]oxadiazol-5-ol], the inhibition at 1 µM in experiment [1] (at 1000 nM, read-out: FLAP binding % inh @ 1000 nM) turned out to be 51%. Besides, the pIC50 in experiment [2] is under 5.30.

These data come from patent US8658661B2, “Oxadiazole inhibitors of leukotriene production” (Boehringer Ingelheim International GmbH, priority 2010, dated 2014).
